The text below walks through data of patent US12673050B2, “Compositions and their use for the treatment of A1-antitrypsin deficiency” (Centessa Pharmaceuticals (UK) Limited, priority 2021, dated 2026).

One series concerns the target human Z A1AT (Homo sapiens, UniProt P01009, E366K). The series is described as follows: Circulating human Z A1AT levels in huZ mice. The series is classed as in vivo, mouse. More on the design: from tissue; host or cells: huZ transgenic mice (line Z11.03, C57Bl/6); expressed in liver, measured in plasma. Particulars: huZ mice, 5, 15 or 50 mg/kg twice a day by oral gavage for 14 days, plasma days 12-14. The text has this: The huZ mouse (also referred to as the PiZZ mouse) is a transgenic mouse strain that contains multiple copies of the Z variant of the human A1AT gene, developed by two separate groups (Dycaico et al (Science (1988) 242:1409-12) and Carlson et al (J. Clin Invest (1989) 83:1183-90)). HuZ mice are on a C57Bl/6 background and express the human Z A1AT protein in liver tissue. The mice used in this study are from the progeny of Carlson and colleagues (transgenic line Z11.03). […]
HuZ mice (n=4/group: male or female) with basal human A1AT plasma levels of between 200-600 μg/ml were treated with either vehicle or (S)-1-((2-(trifluoromethyl)phenyl)sulfonyl)piperidine-3-carboxylic acid at 5, 15 or 50 mg/kg twice a day by oral gavage for 14 consecutive days. […] Human A1AT levels in mouse plasma samples were measured by ELISA (Human Serpin A1/α1 antitrypsin duo set ELISA, R& D Systems, DY1268) per manufacturer's instructions.
Briefly, a 96 well plate was coated with human A1AT capture antibody overnight at room temperature (1:180 dilution from stock, 100 μl final volume/well). […] After which, 50 μl stop solution (2M H2SO4) was added and optical density (OD) of each well was read at 450 nm with 570 nm blank subtracted from each well using a microplate reader. […]

Another series addresses hERG (Homo sapiens, UniProt Q12809). Briefly: hERG channel inhibition, Patchliner automated patch clamp. Format: cell-based. Conditions: human; at 100 μM. The method, then: (§1) (S)-1-((2-(trifluoromethyl)phenyl)sulfonyl)piperidine-3-carboxylic acid was tested for inhibition of cardiac potassium (hERG) channels using the Patchliner automated patch clamp. 6-Point concentration-response curves were generated using half-log serial dilutions from a maximum final test concentration of 100 μM. IC50 values were obtained from a 4-parameter logistic fit of the concentration-response data. […] Reference compound values were consistent with those presented in the literature (Elkins et al., 2013 J. Pharm. Tox. Meth. 68:11-122).
(In general: Block of hERG is tested as a sign of cardiac risk.)

In series [1] the target is cardiac potassium (hERG) channels (Homo sapiens, UniProt Q12809). The description is as above. Format: cell-based. Particulars: 6-point curve, maximum 100 μM. On the procedure: as §1
cardiac potassium (hERG) channels, sequence (Q12809 whole entry): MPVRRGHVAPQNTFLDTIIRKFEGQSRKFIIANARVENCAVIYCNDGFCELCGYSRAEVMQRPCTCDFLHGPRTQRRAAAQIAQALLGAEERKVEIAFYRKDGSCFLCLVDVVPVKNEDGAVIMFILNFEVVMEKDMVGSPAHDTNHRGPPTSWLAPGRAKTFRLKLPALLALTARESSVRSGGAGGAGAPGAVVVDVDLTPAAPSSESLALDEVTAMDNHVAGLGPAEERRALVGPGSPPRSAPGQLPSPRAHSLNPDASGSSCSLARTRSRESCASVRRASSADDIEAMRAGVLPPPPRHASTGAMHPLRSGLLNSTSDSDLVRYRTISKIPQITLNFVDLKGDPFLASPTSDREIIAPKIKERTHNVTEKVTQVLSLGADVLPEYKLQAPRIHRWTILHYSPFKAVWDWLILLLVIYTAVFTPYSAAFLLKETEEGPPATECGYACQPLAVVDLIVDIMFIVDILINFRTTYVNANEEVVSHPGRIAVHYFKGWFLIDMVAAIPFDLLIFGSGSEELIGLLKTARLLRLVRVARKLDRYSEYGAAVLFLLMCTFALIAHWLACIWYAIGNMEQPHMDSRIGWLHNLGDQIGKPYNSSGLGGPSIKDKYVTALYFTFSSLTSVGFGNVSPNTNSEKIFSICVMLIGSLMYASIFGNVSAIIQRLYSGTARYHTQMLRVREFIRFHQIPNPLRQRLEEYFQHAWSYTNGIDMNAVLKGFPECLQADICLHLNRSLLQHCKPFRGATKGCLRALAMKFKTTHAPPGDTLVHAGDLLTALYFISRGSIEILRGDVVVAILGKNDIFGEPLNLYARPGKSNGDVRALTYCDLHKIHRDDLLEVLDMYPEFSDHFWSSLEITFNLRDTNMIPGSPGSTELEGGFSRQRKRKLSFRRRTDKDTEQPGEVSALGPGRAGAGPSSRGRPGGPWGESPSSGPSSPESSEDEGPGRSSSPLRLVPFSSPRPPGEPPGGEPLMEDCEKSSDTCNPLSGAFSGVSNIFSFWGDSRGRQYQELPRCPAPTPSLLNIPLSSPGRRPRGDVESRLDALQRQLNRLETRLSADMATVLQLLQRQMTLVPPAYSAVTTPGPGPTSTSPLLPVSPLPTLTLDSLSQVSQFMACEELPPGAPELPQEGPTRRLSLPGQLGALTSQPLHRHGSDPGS

human Z A1AT, sequence (P01009 25-418 E366K): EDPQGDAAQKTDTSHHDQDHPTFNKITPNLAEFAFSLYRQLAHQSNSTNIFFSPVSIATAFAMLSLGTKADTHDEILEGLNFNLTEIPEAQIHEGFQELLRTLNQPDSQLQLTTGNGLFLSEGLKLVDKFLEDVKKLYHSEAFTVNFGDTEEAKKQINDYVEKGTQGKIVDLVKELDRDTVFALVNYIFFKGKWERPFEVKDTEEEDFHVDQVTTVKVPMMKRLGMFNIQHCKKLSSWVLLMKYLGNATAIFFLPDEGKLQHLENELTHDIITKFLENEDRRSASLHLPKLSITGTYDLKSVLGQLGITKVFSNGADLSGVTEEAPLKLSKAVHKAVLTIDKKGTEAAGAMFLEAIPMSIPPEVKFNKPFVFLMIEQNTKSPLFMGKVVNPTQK
hERG, sequence (Q12809 whole entry): as the sequence (Q12809 whole entry) above

Broadly, the inhibition is the percentage by which the read-out fell short of the control. A lower inhibition goes with little suppression. As a reminder, the IC50 is the concentration needed to halve the response being measured. In the case of `O=C(O)[C@H]1CCCN(S(=O)(=O)c2ccccc2C(F)(F)F)C1` [(S)-1-((2-(Trifluoromethyl)phenyl)sulfonyl)piperidine-3-carboxylic acid], the “circulating human Z A1AT compared to baseline levels” value at human Z A1AT was “stimulates secretion of human Z A1AT compared to baseline levels in huZ mice in a dose dependent manner”. The compound further came in with an inhibition at 100 µM on hERG of 7%. For the same compound, in series [1], the IC50 was greater than 100 µM.
